# Where two headings read alike, the source gives them in different places.
# Assays:
# human CB2 receptors = biological target: T1, human CB2 receptors (Homo sapiens, UniProt P34972); test: functional cAMP assay, CHO cells expressing human CB2 receptors; type: cell-based
# T1 construct: expressed in transfected cells; host or cells: CHO cells
# Procedure: (§1) CHO cells expressing human CB1 or CB2 receptors are seeded 17-24 hours prior to the experiment 50.000 cells per well in a black 96 well plate with flat clear bottom (Corning Costar #3904) in DMEM (Invitrogen No. 31331), lx HT supplement, with 10% fetal calf serum and incubated at 5% CO2 and 37° C. in a humidified incubator. The growth medium was exchanged with Krebs Ringer Bicarbonate buffer with 1 mM IBMX and incubated at 30° C. for 30 min. Compounds were added to a final assay volume of 100 μl and incubated for 30 min at 30° C. Using the cAMP-Nano-TRF detection kit the assay (Roche Diagnostics) was stopped by the addition of 50 μl lysis reagent (Tris, NaCl, 1.5% Triton X100, 2.5% NP40, 10% NaN3) and 50 μl detection solutions (20 μM mAb Alexa700-cAMP 1:1, and 48 μM Ruthenium-2-AHA-cAMP) and shaken for 2 h at room temperature. The time-resolved energy transfer is measured by a TRF reader (Evotec Technologies GmbH), equipped with a ND:YAG laser as excitation source. The plate is measured twice with the excitation at 355 nm and at the emission with a delay of 100 ns and a gate of 100 ns, total exposure time 10 s at 730 (bandwidth 30 nm) or 645 nm (bandwidth 75 nm), respectively. The FRET signal is calculated as follows: FRET=T730-Alexa730-P(T645-B645) with P=Ru730-B730/Ru645-B645, where T730 is the test well measured at 730 nM, T645 is the test well measured at 645 nm, B730 and B645 are the buffer controls at 730 nm and 645 nm, respectively. cAMP content is determined from the function of a standard curve spanning from 10 μM to 0.13 nM cAMP.
# (§2) EC50 values were determined using Activity Base analysis (ID Business Solution, Limited). The EC50 values for a wide range of cannabinoid agonists generated from this assay were in agreement with the values published in the scientific literature.
# human CB1 receptors = biological target: T2, human CB1 receptors (Homo sapiens, UniProt P21554); test: functional cAMP assay, CHO cells expressing human CB1 receptors; type: cell-based
# T2 construct: expressed in transfected cells; host or cells: CHO cells
# Procedure: as §1, §2
# [1] = human EC50, functional cAMP assay, CHO cells expressing human CB2, read-out: EC50:CB2
# T1 sequence (P34972 whole entry): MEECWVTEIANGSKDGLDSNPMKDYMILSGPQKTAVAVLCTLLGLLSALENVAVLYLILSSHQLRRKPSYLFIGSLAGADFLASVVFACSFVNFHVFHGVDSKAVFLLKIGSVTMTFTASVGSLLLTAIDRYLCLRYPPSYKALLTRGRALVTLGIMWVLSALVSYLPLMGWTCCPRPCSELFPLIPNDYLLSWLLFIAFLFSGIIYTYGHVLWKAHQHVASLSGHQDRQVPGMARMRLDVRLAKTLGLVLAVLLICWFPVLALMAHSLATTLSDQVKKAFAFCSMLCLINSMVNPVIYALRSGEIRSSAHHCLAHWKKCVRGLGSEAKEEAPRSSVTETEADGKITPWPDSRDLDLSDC
# T2 sequence (P21554 whole entry): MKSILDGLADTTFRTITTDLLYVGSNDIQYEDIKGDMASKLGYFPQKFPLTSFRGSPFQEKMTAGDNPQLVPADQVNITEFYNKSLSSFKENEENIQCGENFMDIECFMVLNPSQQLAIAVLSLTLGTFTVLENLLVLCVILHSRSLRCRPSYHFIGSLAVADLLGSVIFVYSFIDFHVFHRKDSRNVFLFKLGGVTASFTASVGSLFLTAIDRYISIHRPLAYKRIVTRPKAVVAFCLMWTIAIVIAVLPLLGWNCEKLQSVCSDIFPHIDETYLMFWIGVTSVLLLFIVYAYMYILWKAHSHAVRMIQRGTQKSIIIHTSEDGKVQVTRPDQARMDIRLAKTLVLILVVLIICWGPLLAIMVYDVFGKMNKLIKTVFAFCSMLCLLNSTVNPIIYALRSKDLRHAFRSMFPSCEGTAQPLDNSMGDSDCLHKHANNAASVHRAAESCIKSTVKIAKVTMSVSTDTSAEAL
smiles,measurement,setting,value
"CC(C)(C)c1nc(N2CCC(F)(F)C2)c2ccn(Cc3ccccc3Cl)c2n1 [Example 1, 2-tert-butyl-7-[(2-chlorophenyl)methyl]-4-(3,3-difluoropyrrolidin-1-yl)pyrrolo[2,3-d]pyrimidine]",EC50,human CB2 receptors,10.1 nM
same,EC50,human CB1 receptors,> 10000 nM
"CC(C)(C)c1nc(N2CCC(F)(F)C2)c2ccn(Cc3ccc(F)cc3Cl)c2n1 [Example 2, 2-tert-butyl-7-[(2-chloro-4-fluorophenyl)methyl]-4-(3,3-difluoropyrrolidin-1-yl)pyrrolo[2,3-d]pyrimidine]",EC50,human CB2 receptors,26.5 nM
same,EC50,human CB1 receptors,> 10000 nM
"CC(C)(C)c1nc(N2CCC(F)(F)C2)c2ccn(Cc3ccccc3S(C)(=O)=O)c2n1 [Example 3, 2-tert-butyl-4-(3,3-difluoropyrrolidin-1-yl)-7-[(2-methylsulfonylphenyl)methyl]pyrrolo[2,3-d]pyrimidine]",EC50,human CB2 receptors,11.6 nM
same,EC50,human CB1 receptors,> 10000 nM
"CC(C)(C)c1nc(N2CCC(F)(F)C2)c2ccn(Cc3ccccc3C(F)(F)F)c2n1 [Example 4, 2-tert-butyl-4-(3,3-difluoropyrrolidin-1-yl)-7-[[2-(trifluoromethyl)phenyl]methyl]pyrrolo[2,3-d]pyrimidine]",EC50,human CB2 receptors,7.4 nM
same,EC50,human CB1 receptors,> 10000 nM
"CC(C)(C)c1nc(N2CCC(F)(F)C2)c2ccn(Cc3cccc(Cl)c3Cl)c2n1 [Example 5, 2-tert-butyl-7-[(2,3-dichlorophenyl)methyl]-4-(3,3-difluoropyrrolidin-1-yl) pyrrolo[2,3-d]pyrimidine]",EC50,human CB2 receptors,12.5 nM
same,EC50,human CB1 receptors,> 10000 nM
"CC(C)(C)c1nc(N2CCC(F)(F)C2)c2ccn(Cc3cccnc3Cl)c2n1 [Example 6, 2-tert-butyl-7-[(2-chloropyridin-3-yl)methyl]-4-(3,3-difluoropyrrolidin-1-yl)pyrrolo[2,3-d]pyrimidine]",EC50,human CB2 receptors,12 nM
same,EC50,human CB1 receptors,> 10000 nM
"CC(C)(C)c1nc(N2CCC(F)(F)C2)c2ccn(Cc3ncccc3Cl)c2n1 [Example 7, 2-tert-butyl-7-[(3-chloropyridin-2-yl)methyl]-4-(3,3-difluoropyrrolidin-1-yl)pyrrolo[2,3-d]pyrimidine]",EC50,human CB2 receptors,4.2 nM
same,EC50,human CB1 receptors,> 10000 nM
"Cc1noc(Cn2ccc3c(N4CCC(F)(F)C4)nc(C(C)(C)C)nc32)n1 [Example 8, 5-[[2-tert-butyl-4-(3,3-difluoropyrrolidin-1-yl)pyrrolo[2,3-d]pyrimidin-7-yl]methyl]-3-methyl-1,2,4-oxadiazole]",EC50,human CB2 receptors,49.6 nM
same,EC50,human CB1 receptors,> 10000 nM
"Cc1nonc1Cn1ccc2c(N3CCC(F)(F)C3)nc(C(C)(C)C)nc21 [Example 9, 3-[[2-tert-butyl-4-(3,3-difluoropyrrolidin-1-yl)pyrrolo[2,3-d]pyrimidin-7-yl]methyl]-4-methyl-1,2,5-oxadiazole]",EC50,human CB2 receptors,9.5 nM
same,EC50,human CB1 receptors,> 10000 nM
"Cc1nnc(Cn2ccc3c(N4CCC(F)(F)C4)nc(C(C)(C)C)nc32)o1 [Example 10, 2-[[2-tert-butyl-4-(3,3-difluoropyrrolidin-1-yl)pyrrolo[2,3-d]pyrimidin-7-yl]methyl]-5-methyl-1,3,4-oxadiazole]",EC50,human CB2 receptors,29.6 nM
same,EC50,human CB1 receptors,> 10000 nM
"Cc1nnc(Cn2ccc3c(N4CCC(F)(F)C4)nc(C(C)(C)C)nc32)n1C [Example 11, 2-tert-butyl-4-(3,3-difluoropyrrolidin-1-yl)-7-[(4,5-dimethyl-1,2,4-triazol-3-yl)methyl]pyrrolo[2,3-d]pyrimidine]",EC50,human CB2 receptors,30.8 nM
same,EC50,human CB1 receptors,> 10000 nM
"Cn1nnnc1Cn1ccc2c(N3CCC(F)(F)C3)nc(C(C)(C)C)nc21 [Example 12, 2-tert-butyl-4-(3,3-difluoropyrrolidin-1-yl)-7-[(1-methyltetrazol-5-yl)methyl]pyrrolo[2,3-d]pyrimidine]",EC50,human CB2 receptors,14 nM
same,EC50,human CB1 receptors,> 10000 nM
"CC(C)(C)c1nc(N2CCC(F)(F)C2)c2ccn(Cc3nnnn3C3CC3)c2n1 [Example 13, 2-tert-butyl-7-[(1-cyclopropyltetrazol-5-yl)methyl]-4-(3,3-difluoropyrrolidin-1-yl)pyrrolo[2,3-d]pyrimidine]",EC50,human CB2 receptors,23 nM
same,EC50,human CB1 receptors,> 10000 nM
"CC(C)(C)c1nc(N2CC3(COC3)C2)c2ccn(Cc3ccccc3Cl)c2n1 [Example 14, 6-[2-tert-butyl-7-[(2-chlorophenyl)methyl]pyrrolo[2,3-d]pyrimidin-4-yl]-2-oxa-6-azaspiro[3.3]heptane]",EC50,human CB2 receptors,15.3 nM
same,EC50,human CB1 receptors,> 10000 nM
"Cc1noc(Cn2ccc3c(N4CC5(COC5)C4)nc(C(C)(C)C)nc32)n1 [Example 15, 6-[2-tert-butyl-7-[(3-methyl-1,2,4-oxadiazol-5-yl)methyl]pyrrolo[2,3-d]pyrimidin-4-yl]-2-oxa-6-azaspiro[3.3]heptane]",EC50,human CB2 receptors; [1],747 nM
same,EC50,human CB1 receptors,> 10000 nM
"CC(C)(C)c1nc(N2CC3(COC3)C2)c2ccn([C@H]3CCOC3)c2n1 [Example 16, 6-[2-tert-butyl-7-[(3S)-oxolan-3-yl]pyrrolo[2,3-d]pyrimidin-4-yl]-2-oxa-6-azaspiro[3.3]heptane]",EC50,human CB2 receptors,78.7 nM
same,EC50,human CB1 receptors,> 10000 nM
"CC(C)(C)c1nc(N2CC3(COC3)C2)c2ccn([C@@H]3CCOC3)c2n1 [Example 17, 6-[2-tert-butyl-7-[(3R)-oxolan-3-yl]pyrrolo[2,3-d]pyrimidin-4-yl]-2-oxa-6-azaspiro[3.3]heptane]",EC50,human CB2 receptors,61.8 nM
same,EC50,human CB1 receptors,> 10000 nM
"CC(C)(C)c1nc(N2CC3(COC3)C2)c2ccn(Cc3ccc(F)cc3Cl)c2n1 [Example 18, 6-[2-tert-butyl-7-[(2-chloro-4-fluorophenyl)methyl]pyrrolo[2,3-d]pyrimidin-4-yl]-2-oxa-6-azaspiro[3.3]heptane]",EC50,human CB2 receptors,42.5 nM
same,EC50,human CB1 receptors,> 10000 nM
"CC(C)(C)c1nc(N2CC3(COC3)C2)c2ccn(Cc3ccccc3S(C)(=O)=O)c2n1 [Example 19, 6-[2-tert-butyl-7-[(2-methylsulfonylphenyl)methyl]pyrrolo[2,3-d]pyrimidin-4-yl]-2-oxa-6-azaspiro[3.3]heptane]",EC50,human CB2 receptors,14.6 nM
same,EC50,human CB1 receptors,> 10000 nM
"CC(C)(C)c1nc(N2CC3(COC3)C2)c2ccn(Cc3cccnc3Cl)c2n1 [Example 20, 6-[2-tert-butyl-7-[(2-chloropyridin-3-yl)methyl]pyrrolo[2,3-d]pyrimidin-4-yl]-2-oxa-6-azaspiro[3.3]heptane]",EC50,human CB2 receptors,24.2 nM
same,EC50,human CB1 receptors,> 10000 nM
"CC(C)(C)c1nc(N2CC3(COC3)C2)c2ccn(Cc3cccc(Cl)c3Cl)c2n1 [Example 21, 6-[2-tert-butyl-7-[(2,3-dichlorophenyl)methyl]pyrrolo[2,3-d]pyrimidin-4-yl]-2-oxa-6-azaspiro[3.3]heptane]",EC50,human CB2 receptors,91.4 nM
same,EC50,human CB1 receptors,> 10000 nM
"Cc1nonc1Cn1ccc2c(N3CC4(COC4)C3)nc(C(C)(C)C)nc21 [Example 22, 6-[2-tert-butyl-7-[(4-methyl-1,2,5-oxadiazol-3-yl)methyl]pyrrolo[2,3-d]pyrimidin-4-yl]-2-oxa-6-azaspiro[3.3]heptane]",EC50,human CB2 receptors,48.4 nM
same,EC50,human CB1 receptors,> 10000 nM
"Cc1nnc(Cn2ccc3c(N4CC5(COC5)C4)nc(C(C)(C)C)nc32)o1 [Example 23, 6-[2-tert-butyl-7-[(5-methyl-1,3,4-oxadiazol-2-yl)methyl]pyrrolo[2,3-d]pyrimidin-4-yl]-2-oxa-6-azaspiro[3.3]heptane]",EC50,human CB2 receptors; [1],468 nM
same,EC50,human CB1 receptors,> 10000 nM
"CC(C)(C)c1nc(N2CCC(O)C2)c2ccn(Cc3ccccc3Cl)c2n1 (stereo not shown) [Example 24, 1-[2-tert-butyl-7-[(2-chlorophenyl)methyl]pyrrolo[2,3-d]pyrimidin-4-yl]pyrrolidin-3-ol]",EC50,human CB2 receptors; [1],411 nM
same,EC50,human CB1 receptors,> 10000 nM
"CC(C)(C)c1nc(N2CCC(O)C2)c2ccn(Cc3ccc(F)cc3Cl)c2n1 (stereo not shown) [Example 25, 1-[2-tert-butyl-7-[(2-chloro-4-fluorophenyl)methyl]pyrrolo[2,3-d]pyrimidin-4-yl]pyrrolidin-3-ol]",EC50,human CB2 receptors,10.2 nM
same,EC50,human CB1 receptors,895 nM
"CC(C)(C)c1nc(N2CCC(O)C2)c2ccn(Cc3ccccc3S(C)(=O)=O)c2n1 (stereo not shown) [Example 26, 1-[2-tert-butyl-7-[(2-methylsulfonylphenyl)methyl]pyrrolo[2,3-d]pyrimidin-4-yl]pyrrolidin-3-ol]",EC50,human CB2 receptors,16.8 nM
same,EC50,human CB1 receptors,> 10000 nM
"CC(C)(C)c1nc(N2CCC(O)C2)c2ccn(Cc3ccccc3C(F)(F)F)c2n1 (stereo not shown) [Example 27, 1-[2-tert-butyl-7-[[2-(trifluoromethyl)phenyl]methyl]pyrrolo[2,3-d]pyrimidin-4-yl]pyrrolidin-3-ol]",EC50,human CB2 receptors,6.9 nM
same,EC50,human CB1 receptors,> 10000 nM
"CC(C)(C)c1nc(N2CCC(O)C2)c2ccn(Cc3cccc(Cl)c3Cl)c2n1 (stereo not shown) [Example 28, 1-[2-tert-butyl-7-[(2,3-dichlorophenyl)methyl]pyrrolo[2,3-d]pyrimidin-4-yl]pyrrolidin-3-ol]",EC50,human CB2 receptors,14 nM
same,EC50,human CB1 receptors,> 10000 nM
"CC(C)(C)c1nc(N2CCC(O)C2)c2ccn(Cc3cccnc3Cl)c2n1 (stereo not shown) [Example 29, 1-[2-tert-butyl-7-[(2-chloropyridin-3-yl)methyl]pyrrolo[2,3-d]pyrimidin-4-yl]pyrrolidin-3-ol]",EC50,human CB2 receptors,3.6 nM
same,EC50,human CB1 receptors,> 10000 nM

# From US9580435B2, “Pyrrolo[2,3-D]pyrimidine derivatives as CB2 receptor agonists” (priority 2013, dated 2017)
